Format in all cases: cell-based
Test [1] concerns PANC-1 pancreatic cancer cells. The experiment in a line: Bortezomib sensitization, cell viability in PANC-1 pancreatic cancer cells. To be noted: PANC-1 cells; for EC50: Homo sapiens, cell viability after 48 hour treatment; for fold increase in Btz sensitivity: compound at 1 μM vs DMSO, 48 hour. As for the experimental part: (§1) Reference is made to FIG. 1. (A) The structures of novel derivatives E64FC26 and E64FC65 are shown. (B) Proteasome inhibitor (PI) resistant MM.1S BzR cells were treated with the E64FC26 at a concentration of 500 nM and a dose range of the PI bortezomib (Btz). Cell viability was measured after 24 hours of treatment. […] (C) PANC-1 pancreatic cancer cells were treated with the indicated derivative at a final concentration of 1 μM and a dose range of Btz. Cell viability was measured after a 48 hour treatment time. […] (D) Panels of pancreatic, ovarian, glioma, multiple myeloma, and normal cells were treated with E64FC26 and a dose range of the second generation proteasome inhibitor carfilzomib (Crflz) using a protocol similar to that described above for panels (B) and (C). Crflz EC50 values were extrapolated from dose curves conducted in the presence and absence of E64FC26 and a fold-change was calculated. Each data point represents the fold-change, or the degree of Crflz potentiation, for each cell line tested.

Test [2] has as its system PANC-1 pancreatic cancer cells. The test is described as follows: Panobinostat (HDAC inhibitor) sensitization, cytotoxicity in PANC-1 pancreatic cancer cells. To be noted: PANC-1 cells; for EC50: Homo sapiens; for increase in panobinostat sensitivity (fold): 1 μM compound vs DMSO. As for the experimental part:
Reference is made to FIG. 3. (A) In PANC-1 pancreatic cancer cells, the cytotoxicity of each of the indicated HDAC inhibitors was evaluated in the presence and absence of 1 μM E64FC26. EC50 values are shown. (B) Similar experiments as described in (A) were conducted using T98G glioblastoma cells. EC50 values for each of the HDAC inhibitor in the presence and absence of 1 μM E64FC26. (C) Panels of the indicated tumor cell types were treated with a dose range of the HDAC inhibitor panobinostat in the presence and absence of 1 μM E64FC26. EC50 values were extrapolated and the relative effect of E64FC26 on panobinostat sensitivity was calculated. Each data point indicated the fold change in panobinostat EC50 for that particular cell line. (D) An example of full panobinostat dose response curves in PANC-1 pancreatic cancer cells are shown. PANC-1 cells were co-treated with DMSO vehicle control, 1 μM E64FC26, or 1 μM E64FC65.

Another test concerns MM.1S BzR cells. The experiment in a line: Bortezomib sensitization, cell viability in PI-resistant MM.1S BzR cells. The conditions noted are these: for EC50: Homo sapiens, MM1.S, cell viability after 24 hours. The method, then:
as §1

[3] abbreviates: compound at 1 μM, read-out: Btz EC50 in the presence of the compound.
[4] abbreviates: co-treated with 1 μM compound, read-out: panobinostat EC50 in the presence of the compound.

Where two headings read alike, the source gives them in different places.

Experimental findings from US10329269B2, “Indene derivatives and uses thereof” (MUSC FOUNDATION FOR RESEARCH DEVELOPMENT, priority 2017, dated 2019) are described below.

For `CCCCCC/C=C1\C=C(C(F)(F)F)c2cc3c(cc21)OCO3` [E64FC65, (5E)-7-(trifluoromethyl)-5-heptylidene-5H-indeno[5,6-d][1,3]dioxole], the EC50 amounted to 1.8 nM in test [1] (setting [3]) and 1.1 nM in test [2] (setting [4]). Also, the “fold increase in Btz sensitivity” value in test [1] was 46.4 fold. Also, the “increase in panobinostat sensitivity (fold)” value in test [2] is on record as 412 fold.
Regarding `CCCCCCCC/C=C1\C=C(C(F)(F)F)c2cc(O)c(O)cc21` [E64FC26], the “fold increase in Btz sensitivity” value was 9.7 fold with MM.1S BzR cells (500 nM compound vs DMSO, 24 hours) and 9.2 fold in test [1]. In addition, the EC50 amounted to 4.7 nM in the test with MM.1S BzR cells (co-treatment with 500 nM compound, read-out: Btz EC50 in cells co-treated with the compound); 9.1 nM in test [1] (setting [3]); 5.3 nM in test [2] (setting [4]). In test [2], the “increase in panobinostat sensitivity (fold)” value came out at 85.5 fold.
For the compound `Cc1[nH]c2ccccc2c1CCNCc1ccc(/C=C/C(=O)NO)cc1` [panobinostat, reference compound], the EC50 in test [2] (panobinostat alone (DMSO vehicle), read-out: panobinostat EC50 in DMSO treated cells) is 453 nM.
On to `CC(C)C[C@H](NC(=O)[C@H](Cc1ccccc1)NC(=O)c1cnccn1)B(O)O` [Btz, bortezomib, reference compound], for which the EC50 in the test on MM.1S BzR cells (Btz alone (DMSO vehicle), read-out: Btz EC50, control cells treated with DMSO vehicle) was 45.5 nM; in test [1] (Btz alone (DMSO vehicle), read-out: Btz EC50 in the presence of DMSO vehicle control) it was 83.5 nM.
